Test results taken from US12054480B2, “Compounds for treating cannabinoid toxicity and acute cannabinoid overdose” (MAKScientific, LLC, priority 2020, dated 2024).

Tests used:
[1] = cited from earlier work
[2] = system: male CD-1 mice; assay: Observation chamber test - CB1 antagonist mediated side effects; type: in vivo, mouse; details: FIG. 1; i.v., 60-minute observation; compared with rimonabant (i.p.)
Method: Observation chambers were used to score (count/duration) individual mouse intrinsic behavior. Male CD-1 mice (n=8) were placed in the chambers for 30 minutes to acclimate to the environment. Subjects were dosed i.v with a compound of Formula I-XI along with vehicle control groups and behavior are recorded over a 60-minute period and the results were analyzed. For statistical analysis, measurements were sampled in 5 min bins at the 5-10, 15-20, 25-30, 35-40, 45-50 and 55-60 min time intervals. The scratching response/frequency is defined based on well-established observations. Data was compared with that of rimonabant (i.p). The vehicle control group (vehicle (i.v.)) were included accordingly.

[3] = system: male CD-1 mice; assay: Reversal of CB1 SPC agonist induced neurotoxicity; type: in vivo, mouse; details: FIGS. 2A-2B; induced by suprapharmacological doses of CB1 SPC agonist AM2201; i.v., 30 min observation

SMILES	onset ([1]; humans)	time of peak effects ([1]; humans)	apparent plasma elimination half-life ([1]; in some cases)	side effects (scratching episodes) [2]	neurotoxic effects: convulsions [3]	neurotoxic effects: tremors [3]
CCCCCc1cc(O)c2c(c1)OC(C)(C)[C@@H]1CCC(C)=C[C@@H]21 [THC]	30 to 60 min	2 to 4 h	> 96 h			
CCOC(=O)c1ccc(-c2c(CC)c(C(=O)NN3CCCCC3)nn2-c2ccc(Cl)cc2Cl)cc1 [Compound 1, Ethyl 4-(1-(2,4-Dichlorophenyl)-4-Ethyl-3-(Piperidin-1-Ylcarbamoyl)-1H-Pyrazol-5-Yl)Benzoate]				lesser side effects (scratching episodes) as compared to rimonabant	blocks	blocks
